# Patent US20220031709A1, “INHIBITION OF MICROSOMAL PROSTAGLANDIN E2 (PGE2) SYNTHASE-1 (MPGES-1)” (University of Kentucky Research Foundation, priority 2020, published 2022)
# Legend:
# JAK = conditions: in vitro effect of PGE2; cited from earlier work
# [1] = single IV dose in clinical trial: ceftriaxone 2 g, aztreonam 500 mg, cefotetan 1 g; read-out: Cmax in human plasma; cited from earlier work
# [2] = tested on: carrageenan-induced hyperalgesia; assay: carrageenan-induced hyperalgesia, pre-treatment (paw withdrawal latency); assay type: in vivo, wild-type rats; conditions: for effect on carrageenan-induced hyperalgesia (PWL): IP 1 h before 1% carrageenan, ceftriaxone 200 mg/kg, cefotetan 100 mg/kg, oxycodone 5 mg/kg
# [3] = tested on: carrageenan-induced paw edema; assay: carrageenan-induced paw edema, pre-treatment (percent increase in paw volume); assay type: in vivo, wild-type rats; conditions: IP 1 h before 1% carrageenan; ceftriaxone 200 mg/kg, cefotetan 100 mg/kg, oxycodone 5 mg/kg
# human mPGES-1 = molecular target: T1, human mPGES-1 (Homo sapiens, UniProt O14684); assay: in vitro activity assay (ELISA) against human mPGES-1; assay type: biochemical
# T1 sequence (O14684 1-152): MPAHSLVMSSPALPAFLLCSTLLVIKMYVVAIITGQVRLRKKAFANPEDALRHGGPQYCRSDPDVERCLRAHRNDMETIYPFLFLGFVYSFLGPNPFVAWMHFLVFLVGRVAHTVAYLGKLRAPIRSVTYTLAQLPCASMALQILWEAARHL
# Experimental: The inhibitory activity of these drugs against human mPGES-1 was determined in vitro using the previously described in vitro activity procedure, an enzyme-linked immunosorbent assay (ELISA). (Ding et al., 2018a; Ding et al., 2018b; Zhou et al., 2017).
# [4] = tested on: CFA-induced knee joint arthritis; assay: CFA (adjuvant)-induced knee joint arthritis, arthritis score; assay type: in vivo, wild-type rats; conditions: IP daily on Days 3 to 6 after CFA on Day 0
# Experimental: FIG. 6 illustrates the anti-inflammatory and analgesic effects (in terms of arthritis score) of ceftriaxone and cefotetan on CFA-induced knee joint arthritis in wild-type rats (n=10 for each group). CFA was injected to the knee joint on Day 0. Drug or vehicle (control) was injected (IP) daily on Days 3 to 6. Arthritis score (mean spontaneous pain rating) measured on Days 0 to 6, 8, 10, and 12.
# Ceftriaxone and cefotetan were further tested using an adjuvant-induced knee joint arthritis model described by Hammell et al. 2016. Using this one-week knee joint arthritis model, CFA was injected to the knee joint on Day 0 to induce chronic arthritis and associated pain, followed by daily PWL and arthritis score (mean spontaneous pain rating) assessments from Day 0 to Day 7.
# Daily treatment with ceftriaxone and cefotetan or vehicle (control group) started on Day 3 (after the arthritis score assessment on that day) and continued until Day 6. There were a total of four doses of the respective treatment from Day 3 to Day 6. […] On Day 3, the arthritis score reached the peak (reflecting the most severe arthritis), which is consistent with previous observations reported for the control group. (Hammell et al., 2016).
# [5] = tested on: carrageenan-induced hyperalgesia; assay: post-treatment model of carrageenan-induced hyperalgesia; assay type: in vivo, wild-type rats; conditions: for pain relief (PWL), post-treatment: treated IP 23 h after carrageenan, ceftriaxone 100 or 200 mg/kg, cefotetan 50 or 100 mg/kg, oxycodone 5 mg/kg
# Experimental: To better model the clinical treatment of pain, ceftriaxone (FIG. 4) and cefotetan (FIG. 5) were also tested in a post-treatment model of carrageenan-induced hyperalgesia. Rats were first injected with carrageenan to induce the hyperalgesia/pain.
# [6] = tested on: chronic inflammatory arthritis; conditions: placebo-controlled, double-blind study; cited from earlier work
# SARS-CoV-2 = assay type: cell-based; conditions: cell culture; data not shown
# AngII-induced AAA = assay: angiotensin (AngII)-induced abdominal aortic aneurysm model; assay type: in vivo, ApoE-deficient mice; conditions: AngII minipump 28 days; ceftriaxone given beginning on Day 5
# Experimental: FIG. 7 illustrates the anti-inflammatory effects of ceftriaxone in terms of maximum aortic diameter.
# Ceftriaxone was also tested in treatment of angiotensin (AngII)-induced AAA model. This experiment was performed using ApoE-deficient mice. AngII (with a minipump to continuously release the AngII solution within 28 days) was used to induce AAA in this strain of mice beginning Day 0 for all animals in both control and intervention groups.
# The AAA was characterized by the maximum aortic diameter […] detected by the ultrasound method. Ceftriaxone was given beginning on Day 5 for intervention.
# [7] = tested on: proinflammatory cytokines (including TNF-α), GLT-1; conditions: animal models of inflammation and pain/hyperalgesia; cited from earlier work
# [8] = mouse, in vivo; cited from earlier work
SMILES,Cmax [1],effect on carrageenan-induced hyperalgesia (PWL) [2],effect on carrageenan-induced paw edema (percent increase in paw volume) [3],arthritis score (mean spontaneous pain rating) [4],"pain relief (PWL), post-treatment [5]",other results
N#C/C(=C/c1ccc(O)c(O)c1)C(=O)NCc1ccccc1 [AG490],–,–,–,–,–,block of PGE2-induced inflammatory hyperalgesia effect (JAK): able to block this in vitro effect of PGE2
C[C@H]1[C@H](NC(=O)/C(=N\OC(C)(C)C(=O)O)c2csc(N)n2)C(=O)N1S(=O)(=O)O [aztreonam],129 µM,–,–,–,–,–
CO[C@@]1(NC(=O)C2SC(=C(C(N)=O)C(=O)O)S2)C(=O)N2C(C(=O)O)=C(CSc3nnnn3C)CS[C@@H]21 (stereo partly shown) [cefotetan],440 µM,has the desired anti-inflammatory and analgesic effects,has the desired anti-inflammatory and analgesic effects,mean spontaneous pain rating was reduced,"significantly, and dose-dependently, relieved the pain",IC50 (human mPGES-1): 13.5 µM
CO/N=C(\C(=O)N[C@@H]1C(=O)N2C(C(=O)O)=C(CSc3nc(=O)c(=O)[nH]n3C)CS[C@H]12)c1csc(N)n1 [ceftriaxone],463 µM,completely suppressed carrageenan-induced hyperalgesia,significantly decreased the percent increase in the paw volume,mean spontaneous pain rating was reduced,"significantly, and dose-dependently, relieved the pain","clinical efficacy in chronic inflammatory arthritis [6]: efficacious in treatment of chronic inflammatory arthritis; cytoprotective activity against SARS-CoV-2 infection (SARS-CoV-2): cytoprotective against SARS-CoV-2 infection; progression of AAA (maximum aortic diameter, ultrasound) (AngII-induced AAA): significantly stopped the progression of AAA, and it even reversed the AAA; effect on proinflammatory cytokines and GLT-1 [7]: effectively attenuated the proinflammatory cytokines (including TNF-α) and reversed the downregulation of GLT-1"
Cc1ccc(-c2cc(C(F)(F)F)nn2-c2ccc(S(N)(=O)=O)cc2)cc1 [celecoxib],–,–,–,–,–,"toxicity in mice [8]: very toxic for stomach and other issues of mice, and bleeding ulcer was observed at gastric mucosa"
COc1ccc2c3c1O[C@H]1C(=O)CC[C@@]4(O)[C@@H](C2)N(C)CC[C@]314 [oxycodone],–,effectively relieved the pain within six hours after oxycodone injection,–,–,significantly relieved the pain,"pain (PWL) at 23 h ([2]; oxycodone 5 mg/kg IP pre-treatment, 23 h (next day)): still significant pain at 23 h; PWL peak time ([5]; oxycodone 5 mg/kg IP, post-treatment): 1 h"
